The source of these data is article PMC8537711, “Mechanistic Insights into Binding of Ligands with Thiazolidinedione Warhead to Human Histone Deacetylase 4” (Pharmaceuticals, 2021).

A word on the melting point: it is the temperature, or range, at which the solid turns liquid.

For the molecule `Cc1ccc(C=C2SC(=O)N(CC(=O)Nc3nc4c(Cl)cccc4s3)C2=O)cc1` [GB2, N-(4-chlorobenzo[d]thiazol-2-yl)-2-(5-(4-methylbenzylidene)-2,4-dioxothiazolidin-3-yl)acetamide], the melting point fell in the range of 292 to 294 °C.
Then `Cc1ccc(C=C2SC(=O)N(CC(=O)Nc3nc4c(Cl)cccc4s3)C2=O)cc1C` [GB6, N-(4-chlorobenzo[d]thiazol-2-yl)-2-(5-(3,4-dimethylbenzylidene)-2,4-dioxothiazolidin-3-yl)acetamide], with 214 to 216 °C.
Then `COc1cccc2sc(NC(=O)CN3C(=O)SC(=Cc4ccccc4)C3=O)nc12` [GB8, 2-(5-benzylidene-2,4-dioxothiazolidin-3-yl)-N-(4-methoxybenzo[d]thiazol-2-yl)acetamide], with 157 to 159 °C; and `Cc1cccc2sc(NC(=O)CN3C(=O)SC(=Cc4ccc(F)cc4)C3=O)nc12` [GB10, 2-(5-(4-fluorobenzylidene)-2,4-dioxothiazolidin-3-yl)-N-(4-methylbenzo[d]thiazol-2-yl)acetamide], with 225 to 227 °C; and `O=C(CN1C(=O)SC(=Cc2ccccc2)C1=O)Nc1nc2c(F)cc(F)cc2s1` [GB12, 2-(5-benzylidene-2,4-dioxothiazolidin-3-yl)-N-(4,6-difluorobenzo[d]thiazol-2-yl)acetamide], with 280 to 282 °C.
Then `Cc1ccc2nc(NC(=O)CN3C(=O)SC(=Cc4ccc(F)cc4F)C3=O)sc2c1` [GB13, 2-(5-(2,4-difluorobenzylidene)-2,4-dioxothiazolidin-3-yl)-N-(6-methylbenzo[d]thiazol-2-yl)acetamide], with 266 to 268 °C; and `Cc1ccc(C=C2SC(=O)N(CC(=O)Nc3nc4c(F)cc(F)cc4s3)C2=O)cc1` [GB19, N-(4,6-difluorobenzo[d]thiazol-2-yl)-2-(5-(4-methylbenzylidene)-2,4-dioxothiazolidin-3-yl)acetamide], with 295 to 297 °C; and `Cc1ccc(C=C2SC(=O)N(CC(=O)Nc3nc4c(F)cc(F)cc4s3)C2=O)cc1C` [GB20, N-(4,6-difluorobenzo[d]thiazol-2-yl)-2-(5-(3,4-dimethylbenzylidene)-2,4-dioxothiazolidin-3-yl)acetamide], with 271 to 273 °C.
The molecule `Cc1cc2nc(NC(=O)CN3C(=O)SC(=Cc4ccccc4)C3=O)sc2cc1C` [GB22, 2-(5-benzylidene-2,4-dioxothiazolidin-3-yl)-N-(5,6-dimethylbenzo[d]thiazol-2-yl)acetamide] gave a melting point of 276 to 278 °C.
Then `Cc1cc2nc(NC(=O)CN3C(=O)SC(=Cc4ccc(F)cc4)C3=O)sc2cc1C` [GB25, N-(5,6-dimethylbenzo[d]thiazol-2-yl)-2-(5-(4-fluorobenzylidene)-2,4-dioxothiazolidin-3-yl)acetamide], with 298 to 299 °C; and `Cc1ccc(C=C2SC(=O)N(CC(=O)Nc3nc4cc(C)c(C)cc4s3)C2=O)cc1C` [GB26, N-(5,6-dimethylbenzo[d]thiazol-2-yl)-2-(5-(3,4-dimethylbenzylidene)-2,4-dioxothiazolidin-3-yl)acetamide], with 284 to 286 °C.
On to `O=C(CN1C(=O)SC(=Cc2ccc(F)cc2F)C1=O)Nc1nc2c(F)cc(F)cc2s1` [GB29, N-(4,6-difluorobenzo[d]thiazol-2-yl)-2-(5-(2,4-difluorobenzylidene)-2,4-dioxothiazolidin-3-yl)acetamide], for which the melting point lay within 274 to 276 °C.
Then `O=C(CN1C(=O)SC(=Cc2ccccc2)C1=O)Nc1nc2c(F)cccc2s1` [GB30, 2-(5-benzylidene-2,4-dioxothiazolidin-3-yl)-N-(4-fluorobenzo[d]thiazol-2-yl)acetamide], with 272 to 274 °C.
For `Cc1ccc2nc(NC(=O)CN3C(=O)SC(=Cc4ccc(Br)cc4)C3=O)sc2c1` [GB31, 2-(5-(4-bromobenzylidene)-2,4-dioxothiazolidin-3-yl)-N-(6-methylbenzo[d]thiazol-2-yl)acetamide], the melting point was in the range of 292 to 294 °C.
